According to patent US11806342B2, “Diiodohydroxyquinoline for the treatment of clostridium difficile infection” (Purdue Research Foundation, priority 2019, dated 2023):

How the values were obtained:
[1] = test system: Lactobacillus casei ATCC 334; test: MIC against normal gut microflora, broth microdilution; format: cell-based; conditions: Lacticaseibacillus casei, ATCC334
Summary of the method: (§1)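 MIC was the read-out, determined by broth microdilution of compound and control antibiotics. Bacteria were first adjusted to a 0.5 McFarland standard and then diluted […] to roughly 5×10^5 CFU/mL.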

Bacteroides dorei HM-719 = test: as above; format: cell-based; conditions: Phocaeicola dorei, HM719
Summary of the method: as §1

[2] = test system: Bifidobacterium longum HM-845; test: as above; format: cell-based; conditions: Bifidobacterium longum, HM845
Summary of the method: as §1

[3] = test system: Bacteroides fragilis HM-714; test: as above; format: cell-based; conditions: Bacteroides fragilis, HM714
Summary of the method: as §1

Bacteroides dorei HM-29 = test: as above; format: cell-based; conditions: Phocaeicola dorei, HM29
Summary of the method: as §1

[4] = test system: Bifidobacterium adolescentis HM-633; test: as above; format: cell-based; conditions: Bifidobacterium adolescentis, HM633
Summary of the method: as §1

[5] = test system: Bacteroides fragilis HM-710; test: as above; format: cell-based; conditions: Bacteroides fragilis, HM710
Summary of the method: as §1

[6] = test system: Lactobacillus reuteri HM-102; test: as above; format: cell-based; conditions: Limosilactobacillus reuteri, HM102
Summary of the method: as §1

C. difficile I1 = test: MIC and MBC, broth microdilution; format: cell-based, Clostridium difficile; conditions: Clostridioides difficile, I1
Description: (§2) MIC50 and MIC90 are the minimum concentration of each agent that inhibited growth of 50% and 90% of the tested isolates, respectively. The minimum bactericidal concentration (MBC) of these drugs was tested by plating 5 μL from wells with no growth onto BHIS agar plates. The MBC was categorized as the lowest concentration that reduced bacterial growth by 99.9% MIC50 and MIC90 are the minimum concentration of each agent that inhibited the growth of 50% and 90% of the tested isolates, respectively. The minimum bactericidal concentration (MBC) of these drugs was tested by plating 5 μL from wells with no growth onto BHIS agar plates. The MBC was categorized as the lowest concentration that reduced bacterial growth by 99.9% [29-31].

C. difficile NR-49281 = test: MIC and MBC, broth microdilution; format: cell-based, Clostridium difficile; conditions: Clostridioides difficile, NR49281
Description: as §2

C. difficile I4 = test: MIC and MBC, broth microdilution; format: cell-based, Clostridium difficile; conditions: Clostridioides difficile, I4
Description: as §2

C. difficile NR-49290 = test: MIC and MBC, broth microdilution; format: cell-based, Clostridium difficile; conditions: Clostridioides difficile, NR49290
Description: as §2

C. difficile P24 = test: MIC and MBC, broth microdilution; format: cell-based, Clostridium difficile; conditions: Clostridioides difficile, P24
Description: as §2

C. difficile I2 = test: MIC and MBC, broth microdilution; format: cell-based, Clostridium difficile; conditions: Clostridioides difficile, I2
Description: as §2

C. difficile ATCC 9689 = test: MIC and MBC, broth microdilution; format: cell-based, Clostridium difficile; conditions: Clostridioides difficile, ATCC9689
Description: as §2

C. difficile P2 = test: MIC and MBC, broth microdilution; format: cell-based, Clostridium difficile; conditions: Clostridioides difficile, P2
Description: as §2

C. difficile P11 = test: MIC and MBC, broth microdilution; format: cell-based, Clostridium difficile; conditions: Clostridioides difficile, P11
Description: as §2

C. difficile P13 = test: MIC and MBC, broth microdilution; format: cell-based, Clostridium difficile; conditions: Clostridioides difficile, P13
Description: as §2

C. difficile NR-49284 = test: MIC and MBC, broth microdilution; format: cell-based, Clostridium difficile; conditions: Clostridioides difficile, NR49284
Description: as §2

C. difficile ATCC 43598 = test: MIC and MBC, broth microdilution; format: cell-based, Clostridium difficile; conditions: Clostridioides difficile, ATCC43598
Description: as §2

C. difficile P8 = test: MIC and MBC, broth microdilution; format: cell-based, Clostridium difficile; conditions: Clostridioides difficile, P8
Description: as §2

C. difficile NR-49277 = test: MIC and MBC, broth microdilution; format: cell-based, Clostridium difficile; conditions: Clostridioides difficile, NR49277
Description: as §2

C. difficile HM-89 = test: MIC and MBC, broth microdilution; format: cell-based, Clostridium difficile; conditions: Clostridioides difficile, HM89
Description: as §2

C. difficile P7 = test: MIC and MBC, broth microdilution; format: cell-based, Clostridium difficile; conditions: Clostridioides difficile, P7
Description: as §2

C. difficile P1 = test: MIC and MBC, broth microdilution; format: cell-based, Clostridium difficile; conditions: Clostridioides difficile, P1
Description: as §2

C. difficile ATCC 700057 = test: MIC and MBC, broth microdilution; format: cell-based, Clostridium difficile; conditions: Clostridioides difficile, ATCC700057
Description: as §2

[7] = test system: C. difficile ATCC BAA-1870; test: MIC and MBC, broth microdilution; format: cell-based, Clostridium difficile; conditions: Clostridioides difficile, ATCCBAA1870
Description: as §2

C. difficile NR-49286 = test: MIC and MBC, broth microdilution; format: cell-based, Clostridium difficile; conditions: Clostridioides difficile, NR49286
Description: as §2

CN[C@H](CC(C)C)C(=O)N[C@H]1C(=O)N[C@@H](CC(N)=O)C(=O)N[C@H]2C(=O)N[C@H]3C(=O)N[C@H](C(=O)N[C@H](C(=O)O)c4cc(O)cc(O)c4-c4cc3ccc4O)[C@H](O)c3ccc(c(Cl)c3)Oc3cc2cc(c3O[C@@H]2O[C@H](CO)[C@@H](O)[C@H](O)[C@H]2O[C@H]2C[C@](C)(N)[C@H](O)[C@H](C)O2)Oc2ccc(cc2Cl)[C@H]1O [Vancomycin, vancomycin]
1 µg/mL: MBC (C. difficile I1) | MIC (C. difficile I1) | MBC (C. difficile NR-49290) | MBC (C. difficile I2) | MIC (C. difficile I2) | MBC (C. difficile ATCC 9689) | MBC (C. difficile P2) | MIC (C. difficile P2) | MBC (C. difficile P11) | MIC (C. difficile P11) | MBC (C. difficile ATCC 43598) | MIC (C. difficile ATCC 43598) | MBC (C. difficile P8) | MIC (C. difficile P8) | MBC (C. difficile NR-49277) | MIC (C. difficile NR-49277) | MBC (C. difficile HM-89) | MIC (C. difficile HM-89) | MBC [7] | MIC [7]
0.5 µg/mL: MBC (C. difficile I4) | MIC (C. difficile I4) | MIC (C. difficile NR-49290) | MBC (C. difficile P24) | MIC (C. difficile P24) | MIC (C. difficile ATCC 9689) | MBC (C. difficile P13) | MIC (C. difficile P13) | MBC (C. difficile NR-49284) | MBC (C. difficile P7) | MIC (C. difficile P7) | MBC (C. difficile P1) | MIC (C. difficile P1) | MBC (C. difficile ATCC 700057) | MIC (C. difficile ATCC 700057) | MBC (C. difficile NR-49286)
128 µg/mL: MIC [3]
0.25 µg/mL: MBC (C. difficile NR-49281) | MIC (C. difficile NR-49281) | MIC (C. difficile NR-49284) | MIC (C. difficile NR-49286)
≤ 1 µg/mL: MIC [2] | MIC [4]
64 µg/mL: MIC (Bacteroides dorei HM-719) | MIC (Bacteroides dorei HM-29) | MIC [5]
> 128 µg/mL: MIC [1] | MIC [6]
